IC50 data for 15 compounds are collected here from BindingDB's records for patent US20230339882 (Betta Pharmaceuticals, 2023).

What is called pIC50 is the IC50 on a negative log10 scale, so that one unit is a factor of ten.

Each structure is given as a SMILES string. pIC50: −log10 of the molar value. Some results are limits rather than exact numbers.

Sequence of Potassium voltage-gated channel subfamily H member 2 (Q12809 whole entry): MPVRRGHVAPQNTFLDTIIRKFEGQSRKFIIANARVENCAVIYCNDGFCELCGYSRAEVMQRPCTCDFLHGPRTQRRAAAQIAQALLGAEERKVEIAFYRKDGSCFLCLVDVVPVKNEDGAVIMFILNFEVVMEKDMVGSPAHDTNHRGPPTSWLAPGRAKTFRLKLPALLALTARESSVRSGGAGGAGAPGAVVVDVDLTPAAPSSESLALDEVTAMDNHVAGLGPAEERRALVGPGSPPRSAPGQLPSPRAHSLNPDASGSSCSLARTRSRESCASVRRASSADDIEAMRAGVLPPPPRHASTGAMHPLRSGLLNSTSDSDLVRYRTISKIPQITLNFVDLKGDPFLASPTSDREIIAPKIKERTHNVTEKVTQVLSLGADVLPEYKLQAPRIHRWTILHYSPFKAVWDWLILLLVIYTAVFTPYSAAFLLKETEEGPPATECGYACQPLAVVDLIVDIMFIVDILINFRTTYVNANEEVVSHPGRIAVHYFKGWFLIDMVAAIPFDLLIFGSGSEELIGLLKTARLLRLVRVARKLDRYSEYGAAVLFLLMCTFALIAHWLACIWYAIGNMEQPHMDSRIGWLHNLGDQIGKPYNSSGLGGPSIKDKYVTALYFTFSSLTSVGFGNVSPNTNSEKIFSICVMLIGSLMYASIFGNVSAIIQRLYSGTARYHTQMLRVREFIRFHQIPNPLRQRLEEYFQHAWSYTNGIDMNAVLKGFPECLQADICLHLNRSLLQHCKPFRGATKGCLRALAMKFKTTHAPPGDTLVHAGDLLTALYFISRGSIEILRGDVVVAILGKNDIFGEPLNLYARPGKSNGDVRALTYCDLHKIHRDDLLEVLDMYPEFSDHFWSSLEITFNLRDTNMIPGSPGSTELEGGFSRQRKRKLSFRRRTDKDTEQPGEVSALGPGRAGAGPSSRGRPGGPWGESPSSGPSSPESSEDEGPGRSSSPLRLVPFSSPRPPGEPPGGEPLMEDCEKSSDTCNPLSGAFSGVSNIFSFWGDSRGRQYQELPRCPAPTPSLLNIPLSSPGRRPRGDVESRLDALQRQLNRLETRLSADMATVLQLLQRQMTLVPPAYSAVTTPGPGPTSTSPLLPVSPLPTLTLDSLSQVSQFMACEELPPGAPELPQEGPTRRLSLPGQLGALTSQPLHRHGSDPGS

For the first data set, the target named is T1, Tyrosine-protein phosphatase non-receptor type 11 (Homo sapiens, UniProt Q06124).
T1 sequence (Q06124 whole entry): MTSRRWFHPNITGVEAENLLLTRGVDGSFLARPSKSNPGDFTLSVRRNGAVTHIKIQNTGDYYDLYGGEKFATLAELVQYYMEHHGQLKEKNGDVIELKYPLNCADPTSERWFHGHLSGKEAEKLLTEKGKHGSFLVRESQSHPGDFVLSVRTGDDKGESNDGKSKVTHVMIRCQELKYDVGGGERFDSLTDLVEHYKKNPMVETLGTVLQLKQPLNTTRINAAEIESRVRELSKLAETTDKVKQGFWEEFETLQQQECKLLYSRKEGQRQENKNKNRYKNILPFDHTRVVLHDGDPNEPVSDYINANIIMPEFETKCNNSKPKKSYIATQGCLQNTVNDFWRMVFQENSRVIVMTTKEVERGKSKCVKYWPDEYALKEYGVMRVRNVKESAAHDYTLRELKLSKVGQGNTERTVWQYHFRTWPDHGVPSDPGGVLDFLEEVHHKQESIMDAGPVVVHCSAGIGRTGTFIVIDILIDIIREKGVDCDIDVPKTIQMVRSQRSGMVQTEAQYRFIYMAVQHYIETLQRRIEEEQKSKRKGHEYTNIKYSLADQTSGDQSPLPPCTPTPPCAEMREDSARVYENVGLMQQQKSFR
Nature of the data set: SHP2 Allosteric Inhibitory Enzyme Activity Assay. An excerpt:
SHP2 is allosterically activated by binding of a bis-tyrosyl-phosphorylated peptide to its Src homology 2 (SH2) domain. This later activation step results in the release of the autoinhibitory interface of SHP2, which in turn activates the SHP2 protein tyrosine phosphatase (PTP) and is available for substrate recognition and reaction catalysis. The catalytic activity of SHP2 was monitored using the surrogate DiFMUP in a rapid fluorescence assay format.[0511]experiment procedure:(1) Compound preparation:The compounds of the present invention (10 mM stock solution) were diluted to appropriate times with 100% DMSO, and the final test concentrations of the compounds of the present invention were 10 µM, 3.3333 µM, 1.1111 µM, 0.3704 µM, 0.1235 µM, 0.0412 µM, 0.0137 µM, 0.0046 µM, 0.0015 µM, 0.00 µM;(2) Prepare the enzyme reaction working solution:Perform SHP2 enzymatic assays in 96-well black polystyrene plates (flat bottom, low flange, non-binding surface) (Perki Elmer, Cat#6005270) at room temperature using a final reaction volume of 50 µL and the following assay buffer conditions: 60 mM HEPES, 75 mM NaCl, 75 mM KCl, 0.05% BRIJ-35, 1 mM EDTA, 5 mM DTT.(3) Enzyme-catalyzed reaction and data monitoring:Add the compound of the present invention to the corresponding 96-well plate, and set the blank test well without compound and enzyme only with buffer. Thaw SHP2 Activating Peptide (IRS1_pY1172(dPEG8)pY1222) on ice, add 25 µM to each well, then add 0.2 ng of SHP2 protein sample to the corresponding well plate and incubate at room temperature for 1 hour. The surrogate substrate DiFMUP (Invitrogen, Cat #D6567) was added to the reaction and allowed to react for 1 hour at room temperature. Fluorescence signals were monitored using a microplate reader (Envision, Perki Elmer) using excitation and emission wavelengths of 340 nm and […], respectively.(4) Data analysis:Calculation Formula:Suppression rate %=1-Conversion_sample-Conversion_min/Conversion_max-Conversion_min×100%
Compound `N[C@@H]1c2ccccc2CC12CCN(c1ncc(C#CCOc3cccc(Cl)c3F)nc1CO)CC2` [US20230339882, Example A05] gave a pIC50 of 8.31.

The compound `COc1ccccc1OCC#Cc1cnc(N2CCC3(CC2)Cc2ccccc2[C@H]3N)c(CO)n1` [US20230339882, Example A10] gave a pIC50 of 8.43.

In turn, `N#Cc1ccc(OCC#Cc2cnc(N3CCC4(CC3)Cc3ccccc3[C@H]4N)c(CO)n2)cc1` [US20230339882, Example A12] gave a pIC50 of 9.00.

`N[C@@H]1c2ccccc2CC12CCN(c1ncc(C#CCOc3cccc(OC(F)(F)F)c3)nc1CO)CC2` [US20230339882, Example A15] gave a pIC50 of 7.96.

In turn, `CC(=O)c1cccc(OCC#Cc2cnc(N3CCC4(CC3)Cc3ccccc3[C@H]4N)c(CO)n2)c1` [US20230339882, Example A16] gave a pIC50 of 8.62.

As to `N[C@@H]1c2ccccc2CC12CCN(c1ncc(C#CCOc3ccc4ccc(=O)[nH]c4c3)nc1CO)CC2` [US20230339882, Example A24], the pIC50 is 8.62.

Consider `N[C@@H]1c2ccccc2CC12CCN(c1ncc(C#CCOc3ccc4c(c3)NC(=O)C4)nc1CO)CC2` [US20230339882, Example A25], for which the pIC50 was 8.77.

In the case of `CC(=O)Nc1cccc(OCC#Cc2cnc(N3CCC4(CC3)Cc3ccccc3[C@H]4N)n(C)c2=O)c1` [US20230339882, Example A34], the pIC50 was 8.28.

`CNC(=O)c1cccc(OCC#Cc2cnc(N3CCC4(CC3)Cc3ccccc3[C@H]4N)c(CO)n2)c1` [US20230339882, Example A35] showed a pIC50 of 8.66.

For `CN(C)C(=O)c1cccc(OCC#Cc2cnc(N3CCC4(CC3)Cc3ccccc3[C@H]4N)c(CO)n2)c1` [US20230339882, Example A36], the pIC50 was 8.14.

Consider `N[C@@H]1c2ccccc2CC12CCN(c1ncc(C#CCOc3ccc(C(F)(F)F)nc3)nc1CO)CC2` [US20230339882, Example A63], for which the pIC50 was 8.59.

In the case of `N[C@@H]1c2ccccc2CC12CCN(c1ncc(C#CCNc3ccc4c(c3)NC(=O)CC4)nc1CO)CC2` [US20230339882, Example A64], the pIC50 is 8.59.

Take `N[C@@H]1c2ccccc2CC12CCN(c1ncc(C#CCOc3ccc4[nH]ncc4c3)nc1CO)CC2` [US20230339882, Example A67]: the pIC50 was 8.51.

For the compound `CNC(=O)c1ccc(OCC#Cc2cnc(N3CCC4(CC3)Cc3ccccc3[C@H]4N)c(CO)n2)cc1` [US20230339882, Example A72], the pIC50 was 8.59.

In another data set the target is Potassium voltage-gated channel subfamily H member 2 (Homo sapiens, UniProt Q12809). The data set can be described thus: Electrophysiological Stimulation Protocol. An excerpt:
Measure the peak tail current.
For `CC(O)c1ccc(OCC#Cc2cnc(N3CCC4(CC3)Cc3ccccc3[C@H]4N)c(CO)n2)cc1` (stereo not given in full) [US20230339882, Example A71], the pIC50 is below 4.70.
